From US20230145342A1, “COMBINATORY TREATMENT” (AALTO UNIVERSITY FOUNDATION SR, priority 2020, published 2023) come the findings set out here.

The subject of test [1] is Pseudomonas aeruginosa 2798 (ATCC 2798). Put plainly: Resistance profile of strain (Table 3). The format is cell-based. The conditions noted are these: strain 2798 (ATCC 2798). The source says: (§1) The effect of P[5]a on the penetration and efficacy of coadministered antibiotics Amikacin (a), Cefepime (b), Ceftazidime (c) and Meropenem (d) in MDR resistant clinical isolates were studied.

For another test, the system named is P. aeruginosa PAO1. Put plainly: Antibiotic resistance buildup, daily MIC over 14 consecutive days. It is filed as cell-based, Pseudomonas aeruginosa. The conditions noted are these: for development of resistance by the pathogen to the respective antibiotic: coadministration of P[5]a with the antibiotic, 14-day period. From the text:
Area below the yellow line means that the bacterium is classified as susceptible to the antibiotic. The area in between yellow and red means that the bacterium is intermediate susceptible to the antibiotic. The area above the red line means that the bacterium is classified as resistant to the antibiotic (According to the “Performance Standards for Antimicrobial Susceptibility Testing”, which is maintained by the Clinical and Laboratory Standards Institute).
Because of this, a combined administration of P[5]a with a variety of antibiotics was tested. MIC values with two different antibiotics, meropenem and cefepime (FIG. 2) were tested, over a period of 14 consecutive days (which more than surpasses the length of normal treatments, 7-10 days), when administered together with and without 2.5 mM P[5]a.
In this experiment, the minimum inhibitory concentration MIC was analyzed daily for 14 consecutive days, and the highest MIC values (so the highest concentration of antibiotic where the bacteria still grew) was used for the next day. This way, the buildup of resistance over time can be monitored. In FIG. 2, the area below the yellow line means that the bacterium is classified as susceptible to the antibiotic, the area in between yellow and red means that the bacterium is intermediate susceptible to the antibiotic and the area above the red line means that the bacterium is classified as resistant to the antibiotic (According to the “Performance Standards for Antimicrobial Susceptibility Testing”, which is maintained by the Clinical and Laboratory Standards Institute).
The effect of P[5]a on encountering resistance development in a pathogenic Gram-negative bacterium, Pserudomonas aeruginosa, strain PA01 was studied over 14-day period. The development of resistance over 14 continuous days by the pathogen PAO1 towards treatment with four clinically relevant antibiotics (meropenem, cefepime, aztreonam and tobramycin) and P[5]a was compared. […] In all antibiotic treatments, reduced susceptibility was observed from day 4 onwards, with complete resistance to all treatments after 12 days.
The effect of P[5]a on the enhancement of the penetration of coadministered antibiotics having intracellular targets (aztreonam, cefepime, meropenem and tobramycin) was studied over 14-day period in a pathogenic Gram-negative bacterium, Pserudomonas aeruginosa, strain PA01. […] MIC values were categorized in three groups according to the Clinical and Laboratory Standards Institute: susceptible, intermediate susceptible and resistant.

A short description of test [2]: Dye displacement (competitive-binding) assay between P[5]a host and HSL guests. The conditions noted are these: HSL guest titrated against P[5]a host with bound fluorescent dye. The source says: The addition of a HSL “[…]” displaces the […] from the cavity again, resulting in a shift back to 468 nm.
To measure the binding affinity between the macrocyclic “Host” P[5]a and different homoserine lactone “guests” a competitive-binding assay was used. In this case, a “guest” HSL solution is titrated against a solution of the P[5]a “host”, which has a fluorescent dye bound in its cavity, […], which has a known affinity for the P[5]a. The ratio of P[5]a to HSL enables calculation of the affinity.

Test [3] relates to Pseudomonas aeruginosa 5542. The test is described as follows: Resistance profile of strain (Table 3). It is filed as cell-based. The conditions noted are these: strain 5542 P. aeruginosa.
From the text: as §1

Test [4] relates to Pseudomonas aeruginosa 5832. Put plainly: Resistance profile of strain (Table 3). It is filed as cell-based. The conditions noted are these: strain 5832.
From the text: as §1

Test [5] has as its system Pseudomonas aeruginosa 5550. The test is described as follows: Resistance profile of strain (Table 3). It is filed as cell-based. Conditions: strain 5550.
From the text: as §1

For test [6], the system named is Pseudomonas aeruginosa 5834. The test is described as follows: Resistance profile of strain (Table 3). The format is cell-based. Conditions: strain 5834.
From the text: as §1

In test [7] the test system is Pseudomonas aeruginosa 5827. Put plainly: Resistance profile of strain (Table 3). It is filed as cell-based. The conditions noted are these: strain 5827.
For test [8], the system named is MDR-Acinetobacter baumannii 5542. Put plainly: Resistance profile of strain (Table 3). The format is cell-based. Conditions: strain 5542 A. baumannii.
Test [9] deals with Pseudomonas aeruginosa 5539. The test is described as follows: Resistance profile of strain (Table 3). The conditions noted are these: strain 5539. The format is cell-based.
The test system of test [10] is multidrug resistant P. aeruginosa strain PA 5834. The test is described as follows: MIC of antibiotics without and with P[5]a, Luria broth (sensitizing effect test). The format is cell-based, Pseudomonas aeruginosa. Here is the method:
Values in blue, yellow and orange indicate the bacterium is categorized as “susceptible”, “intermediate susceptible” and “resistant”, respectively, according to the “Performance Standards for Antimicrobial Susceptibility Testing”, which is maintained by the Clinical and Laboratory Standards Institute.
So, it was tested whether P[5]a could sensitize (increase the efficacy of) already resistant P. aeruginosa strains PA 5834 (FIG. 4) and PA 5539 (FIG. 5), that are resistant to a wide variety of antibiotics. To test this, two MDR P. aeruginosa strains from clinical isolates were used. These isolates were obtained from patients in the Meilahti hospital (Helsinki, Finland). The antibiotics used, and their different mechanisms of actions, are described in Table 2.
In FIG. 4 with P. aeruginosa strain PA 5834, P[5]a made the bacterium classify as “susceptible” again, whereas without P[5]a it was fully “resistant” to the antibiotics ceftazidime and cefepime (even growing in the highest concentration we tested). This could have major implications, because there have been many encounters already of “Pan-Drug resistant bacteria” bacteria that are classified as “resistant” to all known antibiotics. They are basically untreatable by current standards. P[5]a Virulence inhibitors, might make those bacteria susceptible again for treatment. In FIG. 5 with P. aeruginosa strain PA 5539, the overall resistance profile of the bacterium was much lower. […] Further testing was done on six resistant P. aeruginosa strains from the Helsinki hospital collection, PA 5550, PA 5842, PA 5827, PA 5832, PA 5834 and PA 5539 with four different antibiotics (amikacin, cefepime, ceftazidime and meropenem).

By MIC is commonly meant the lowest concentration found to suppress growth. Low values mean a more susceptible organism, high ones a less susceptible organism.

Each structure is given as a SMILES string. Converted amounts (≈) assume the structure as drawn. “Also recorded” adds a separate entry of the source.

For `C[C@H]1[C@H](NC(=O)/C(=N\OC(C)(C)C(=O)O)c2csc(N)n2)C(=O)N1S(=O)(=O)O` [aztreonam], the “Antibiotic resistance (category)” value in test [1] is listed as “Intermediate susceptible”. In addition, the “development of resistance by the pathogen to the respective antibiotic” value (shortened to “development of resistance”) with P. aeruginosa PAO1 was “greatly slowed”.
For `CCCC(=O)CC(=O)N[C@H]1CCOC1=O` [3-Oxo-C6], in test [2], the “displacement of dye from P[5]a cavity (binding affinity)” value (shortened to “displacement of dye from P[5]a cavity”) is recorded as “Poor displacement”.
Still for that read-out and setting: then `CCCCCCCCCCCC(O)CC(=O)N[C@@H]1CCOC1=O` (stereo partly drawn) [3-OH—C14 HSL], with “high binding affinity; also recorded: strong displacement”.
With `C[C@@H](O)[C@H]1C(=O)N2C(C(=O)O)=C(S[C@@H]3CN[C@H](C(=O)N(C)C)C3)[C@H](C)[C@H]12` [meropenem, Meropenem], the “Antibiotic resistance (category)” value in [3] is on record as “resistant”; in test [1], “Aztreonam & Cefepime, Resistant to Ceftazidime, Cirpofloxacin,”; in test [4] it was “resistant”; in test [5], “resistant”; in [6], “resistant”; in test [7], “resistant”. The “Antibiotic resistance (category)” value in test [8] is on record as “Resistant to Amikacin, Amoxicillin-clavulanate, Ampicillin,”; in test [9], “resistant”. Further, the “Antibiotic resistance (value given with the category, MIC)” value in test [3] was 8 µg; in test [4] it was 8 µg; in [5], 8 µg; in test [6] it was “cefepime 64 ug, ceftazidime 64 ug and meropenem 64 ug”; in test [7] it was 16 µg; in [9], 8 µg. Besides, in the test with P. aeruginosa PAO1, the “development of resistance” value is given as “greatly slowed”.
Take `CCCCCC(=O)CC(=O)N[C@H]1CCOC1=O` [3-Oxo-C8 HSL]: the “displacement of dye from P[5]a cavity” value in test [2] was “Medium displacement”.
Turning to `NC[C@H]1O[C@H](O[C@H]2[C@H](O)[C@@H](O[C@H]3O[C@H](CO)[C@@H](O)[C@H](N)[C@H]3O)[C@H](N)C[C@@H]2N)[C@H](N)C[C@@H]1O` [tobramycin], the “development of resistance” value with P. aeruginosa PAO1 was “greatly slowed”. In addition, the “Antibiotic resistance (category)” value in test [8] is “Resistant to Amikacin, Amoxicillin-clavulanate, Ampicillin,”; in [9], “resistant”.
For `CCCCCCCCCC(=O)CC(=O)NC1CCOC1=O` (stereo not drawn) [3-Oxo-C12 HSL], the “displacement of dye from P[5]a cavity” value in test [2] was “high binding affinity; also recorded: strong displacement”.
On to `CCCC(=O)N[C@H]1CCOC1=O` [C4], for which the “displacement of dye from P[5]a cavity” value in test [2] is reported as “Poor displacement”.
Turning to `CC(C)(O/N=C(\C(=O)N[C@@H]1C(=O)N2C(C(=O)[O-])=C(C[n+]3ccccc3)CS[C@H]12)c1csc(N)n1)C(=O)O` [ceftazidime, Ceftazidime], the “Antibiotic resistance (category)” value in [3] is “resistant”; in [1] it was “Aztreonam & Cefepime, Resistant to Ceftazidime, Cirpofloxacin,”; in test [4], “resistant”; in [5] it was “resistant”; in [6] it was “resistant”; in [7], “resistant”. The “Antibiotic resistance (category)” value in test [9] is given as “resistant”. For the same compound, the “Antibiotic resistance (value given with the category, MIC)” value was 32 µg in test [3]; 16 µg in test [4]; 16 µg in test [5]; “cefepime 64 ug, ceftazidime 64 ug and meropenem 64 ug” in test [6]; 64 µg in test [7]; 8 µg in test [9]. For the same compound, the figures for the “susceptibility classification (CLSI)” value in test [10] (with P[5]a) and in test [10] (without P[5]a) were “susceptible” and “resistant”, respectively.
As to `CO/N=C(\C(=O)N[C@@H]1C(=O)N2C(C(=O)[O-])=C(C[N+]3(C)CCCC3)CS[C@H]12)c1csc(N)n1` [cefepime, Cefepime], the “Antibiotic resistance (category)” value in [3] is recorded as “resistant”; in [1], “Intermediate susceptible”; in test [4], “Intermediate susceptible”; in test [5], “Intermediate susceptible”; in test [6], “resistant”; in test [7], “resistant”. Further, the “Antibiotic resistance (category)” value in test [9] is “intermediate”. Also, the “Antibiotic resistance (value given with the category, MIC)” value was 32 µg in test [3]; 8 µg in [4]; 16 µg in test [5]; “cefepime 64 ug, ceftazidime 64 ug and meropenem 64 ug” in test [6]; 32 µg in test [7]; 8 µg in test [9]. The compound further displayed an MIC with P. aeruginosa PAO1 (Pseudomonas aeruginosa, PAO1, 96 h, after four days, highest concentration of antibiotic included) of 128 µg/mL (≈ 266 µM). For the same compound, the “development of resistance” value in the test on P. aeruginosa PAO1 is listed as “greatly slowed”. Further, the “susceptibility classification (CLSI)” value in test [10] (with P[5]a) is recorded as “susceptible”; in test [10] (without P[5]a), “resistant”.
